Literature values in patent US8188116B2, “Agents for therapy efficacy monitoring and deep tissue imaging” (Vanderbilt University, priority 2002, dated 2012).

Test system: PBR
Settings: in words, background statement

SMILES: COc1ccc(OC)c(CN(C(C)=O)c2cc(F)ccc2Oc2ccccc2)c1 [DAA1106]
- binding affinity for PBR: fentomolar
